{
  "source": "patent US9233161B2",
  "about": "“Compositions and methods for the treatment of neurological conditions” (CELLIX BIO PRIVATE LIMITED, priority 2012, dated 2016)",
  "tested_on": "Rat Model of Neuropathic Pain",
  "assay": "Mechanic pain test (Randall-Sellitio method) in a rat model of neuropathic pain (loose ligation of the right sciatic nerve)",
  "format": "in vivo",
  "conditions": "i.p., 40, 60 mg/kg equivalent of milnacipran, 15 days after surgery, tested for 2 h every 30 min, compared with milnacipran",
  "protocol": "The Effect of Milnacipran and Formula I (1-1) on Nociception in a Rat Model of Neuropathic Pain\nAfter the preoperative pain thresholds of rats determined by mechanic pain test (Randall-Sellitio method), peripheric neuropathy was formed by loose ligating the right sciatic nevre. An identical procedure was performed without ligating on the left side (sham-operation). 15 days after surgical procedure postoperative pain thresholds were determined and saline and drugs were administered via intraperitoneal (i.p) route. Drugs groups were planned as milnacipran (40, 60, 80 mg/kg), Formula I (1-1) (20, 40, 60 mg/kg equivalent of milnacipran), After saline and drug injection, the test was repeated for 2 h in every 30 min. Pain thresholds were given as mean, SEM from % values. Spontaneous locomotor activity was measured by an activity cage and movements were quantified as the total of ambulatory and stereotypic behaviour. Statistical evaluation was made with one way variance analysis (ANOVA) followed by LSD test.",
  "data": [
    {"compound": "CCN(CC)C(=O)[C@]1(c2ccccc2)CC1CNC(=O)CCCC[C@]1(C)CCSS1", "note": "(stereo partly shown) [Formula I (1-1)]", "values": [
      {"measurement": "antinociceptive effect (pain thresholds)", "result": "more potent antinociceptive effect"}
    ]}
  ]
}
